The values that follow come from PubChem BioAssay (NCI).

Some test systems named below: CCRF-CEM leukemia; CAKI-1 renal; SK-OV-3 ovarian; SR leukemia; 786-0 renal; MALME-3M melanoma; COLO 205 colon; OVCAR-5 ovarian.
Common to all, as to assay: NCI-60 cell line screen, 48 h

Each structure is given as a SMILES string.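 Five compound concentrations were applied to cells in 96-well plates for 48 hours; endpoints were derived by simple linear interpolation of the resulting dose-response curve. GI50 is the concentration that inhibits growth by half. TGI denotes the concentration required for complete inhibition of growth.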

For `CC1(C)CC(=O)C2=C(C1)OC(N)=C(c1nc(-c3ccccc3)cs1)C2c1ccc(Br)cc1` (stereo not given), the GI50 was 58.6 µg/mL in the test on CCRF-CEM leukemia; above 150 µg/mL with CAKI-1 renal; 102 µg/mL in the test with SK-OV-3 ovarian; 112 µg/mL in the test on SR leukemia; 100 µg/mL in the test on 786-0 renal; above 150 µg/mL in the test with MALME-3M melanoma. Besides, the GI50 in the test on COLO 205 colon was 41.8 µg/mL; in the test with OVCAR-5 ovarian, above 150 µg/mL. Further, the TGI in the test on CCRF-CEM leukemia, with CAKI-1 renal, in the test on SK-OV-3 ovarian, in the test with SR leukemia, in the test on 786-0 renal and in the test on MALME-3M melanoma was above 150 µg/mL each time. In addition, the TGI with COLO 205 colon and in the test on OVCAR-5 ovarian was above 150 µg/mL in each case.
As to `C[C@]12CC[C@@H]3c4cc(OC(F)F)c(OS(N)(=O)=O)cc4CC[C@H]3[C@@H]1CC[C@@H]2O`, the GI50 with CCRF-CEM leukemia is 398 nM; in the test with CAKI-1 renal it was 485 nM; in the test on SK-OV-3 ovarian, 0.683 µM; with SR leukemia, 303 nM; in the test on 786-0 renal it was 0.621 µM; with MALME-3M melanoma, 0.485 µM. Further, the GI50 is 653 nM in the test on COLO 205 colon and 1770 nM in the test with OVCAR-5 ovarian. In addition, the TGI is above 100 µM in the test with CCRF-CEM leukemia; 44.1 µM in the test with CAKI-1 renal; 76.9 µM in the test on SK-OV-3 ovarian; above 100 µM in the test on SR leukemia; 29.1 µM in the test on 786-0 renal; 21.6 µM with MALME-3M melanoma. Also, the values for the TGI in the test with COLO 205 colon and in the test on OVCAR-5 ovarian were 13.9 µM and above 62.8 µM, respectively.
For `O=C1c2sccc2-c2cccc3cccc1c23` (tested in a mixture with another compound), the TGI was 12.8 µM in the test with CCRF-CEM leukemia; 24.2 µM in the test with CAKI-1 renal; above 100 µM in the test on SK-OV-3 ovarian; 2.02 µM with SR leukemia; above 100 µM in the test with 786-0 renal; 9.06 µM in the test on MALME-3M melanoma. For the same compound, the TGI in the test with COLO 205 colon is 15.6 µM; with OVCAR-5 ovarian it was 25.5 µM.
For the compound `CSc1nc2sc3c(c2c(=O)n1-c1ccc(C(C)C)cc1)CCC(=O)C3`, the GI50 is 2420 nM in the test on CCRF-CEM leukemia; 2380 nM in the test on CAKI-1 renal; 2.63 µM with SK-OV-3 ovarian; 2140 nM with SR leukemia; 3.06 µM in the test on 786-0 renal; 3.11 µM in the test with MALME-3M melanoma. The GI50 is 1890 nM with COLO 205 colon and 2710 nM in the test with OVCAR-5 ovarian. The TGI stood at 6.42 µM in the test on CCRF-CEM leukemia; 6.03 µM in the test with CAKI-1 renal; 6.92 µM in the test with SK-OV-3 ovarian; 6.02 µM in the test with SR leukemia; 9.79 µM in the test on 786-0 renal; 8.25 µM with MALME-3M melanoma. The TGI in the test on COLO 205 colon was found to be 3.63 µM; in the test on OVCAR-5 ovarian, 6.58 µM.
In the case of `O=C(CC1(O)C(=O)N(Cc2ccccc2)c2ccccc21)c1ccc(C(=O)NCC2CCC3(CC2)OOC2(CCCCC2)OO3)cc1` (stereo not given), the GI50 in the test on CCRF-CEM leukemia is 421 nM; with CAKI-1 renal, 577 nM; with SK-OV-3 ovarian, 6.57 µM; in the test on SR leukemia it was 344 nM; with 786-0 renal, 0.18 µM; in the test with MALME-3M melanoma, 0.566 µM. Besides, the GI50 with COLO 205 colon is 1930 nM; in the test on OVCAR-5 ovarian it was 1610 nM. For the same compound, the TGI was 2.17 µM in the test on CCRF-CEM leukemia; 1.14 µM with CAKI-1 renal; above 51.1 µM in the test with SK-OV-3 ovarian; 1.66 µM in the test on SR leukemia; 0.345 µM in the test with 786-0 renal; 2 µM in the test on MALME-3M melanoma. For the same compound, the TGI was found to be 4.51 µM in the test on COLO 205 colon and 7.52 µM in the test on OVCAR-5 ovarian.
As for `Cn1cc(C2=C(c3cccc(OC[C@@H](O)CO)c3)C(=O)NC2=O)c2ccccc21`, the GI50 is above 22500 nM in the test on CCRF-CEM leukemia; 15300 nM with CAKI-1 renal; above 18.3 µM with SK-OV-3 ovarian; above 11200 nM in the test on SR leukemia; 14 µM in the test with 786-0 renal; above 25 µM with MALME-3M melanoma. The GI50 in the test with COLO 205 colon was above 18300 nM; with OVCAR-5 ovarian, above 25000 nM. In addition, the TGI in the test with CCRF-CEM leukemia, in the test on CAKI-1 renal, in the test with SK-OV-3 ovarian, in the test on SR leukemia, with 786-0 renal and with MALME-3M melanoma was above 25 µM each time. The TGI in the test on COLO 205 colon and in the test with OVCAR-5 ovarian was above 25 µM each time.
Consider `N#CC1=C(/N=C/c2ccccc2)Oc2c(ccc3ccccc23)C1c1ccccc1` (stereo not given), for which the GI50 was 462 nM in the test with CCRF-CEM leukemia; 310 nM in the test with CAKI-1 renal; 0.534 µM with SK-OV-3 ovarian; 409 nM in the test on SR leukemia; 0.546 µM in the test with 786-0 renal; 0.67 µM with MALME-3M melanoma. In addition, the GI50 with COLO 205 colon is 594 nM; in the test on OVCAR-5 ovarian it was 2130 nM. Moreover, the TGI is above 100 µM in the test on CCRF-CEM leukemia; above 53.7 µM in the test on CAKI-1 renal; above 100 µM with SK-OV-3 ovarian; above 100 µM in the test on SR leukemia; above 100 µM with 786-0 renal; above 100 µM in the test on MALME-3M melanoma. In the test on OVCAR-5 ovarian, this compound displayed a TGI above 100 µM.
Take `Nc1nc(Nc2ccccc2SSc2ccccc2Nc2nc(N)nc(C(Cl)(Cl)Cl)n2)nc(C(Cl)(Cl)Cl)n1`: the GI50 is 3230 nM in the test on CCRF-CEM leukemia; 3010 nM in the test with CAKI-1 renal; 26.4 µM in the test with SK-OV-3 ovarian; 1630 nM in the test with SR leukemia; 7 µM in the test with 786-0 renal; 5.9 µM in the test with MALME-3M melanoma. The GI50 was 17600 nM in the test with COLO 205 colon and 4750 nM with OVCAR-5 ovarian. Further, the TGI turned out to be 14 µM in the test with CCRF-CEM leukemia; 10.5 µM with CAKI-1 renal; 91.3 µM in the test on SK-OV-3 ovarian; 3.76 µM with SR leukemia; 19.9 µM in the test with 786-0 renal; 18.6 µM with MALME-3M melanoma. Moreover, the TGI in the test on COLO 205 colon amounted to 34.9 µM; in the test on OVCAR-5 ovarian, 18.7 µM.
Take `CC(=O)NCc1cccc(C#Cc2cncnc2Nc2ccc(OCc3cccc(F)c3)c(Cl)c2)c1`: the GI50 with CCRF-CEM leukemia is 13400 nM; in the test on CAKI-1 renal it was 2040 nM; with SK-OV-3 ovarian, above 12.9 µM; in the test with SR leukemia it was above 25000 nM; in the test on 786-0 renal it was 10.7 µM; in the test on MALME-3M melanoma it was 19.4 µM. The GI50 in the test with COLO 205 colon is above 16700 nM; with OVCAR-5 ovarian, 9130 nM. For the same compound, the TGI in the test with CCRF-CEM leukemia is above 25 µM; with CAKI-1 renal, above 23.7 µM; with SK-OV-3 ovarian it was above 25 µM; in the test with SR leukemia it was above 25 µM; in the test with 786-0 renal it was above 25 µM; with MALME-3M melanoma, above 25 µM. The TGI with COLO 205 colon and in the test on OVCAR-5 ovarian was above 25 µM each time.
